Assay results reported in US12565504B2, “Spirocyclic O-glycoprotein-2-acetamido-2-deoxy-3-d-glucopyranosidase inhibitors” (BIOGEN MA INC., priority 2019, dated 2026).

How the values were obtained:
[1] = target: Recombinant full length human OGA enzyme (Homo sapiens (Human), UniProt O60502); assay: OGA Enzyme Inhibition Biochemical Assay; settings: 1 nM OGA, 100 μM 4-MUGlcNAc, 90 minutes, pH 6.4
Protocol: Recombinant full length human OGA enzyme was purchased from Origene. 4-MUGlcNAc substrate was purchased from Sigma. All other reagents were purchased from Sigma or Fisher. Assay buffer consists of the McIlvaine buffer system, pH 6.4 (0.2M Na2HPO4 mixed with 0.1M citric acid) and 0.01% BSA. […] Reactions were incubated for 90 minutes at room temperature and quenched with 40 μl of 3M glycine, pH 10 and read on a Perkin Elmer Envision plate reader (Ex: 355 nm/Em: 460 nm). Compounds were tested with a 10-point dose-response starting from 20 μM with a 4-fold dilution. Data was fit using GraphPad Prism using a 4-parameter fit with variable slope.

[2] = target: OGA (S400 O-GLCNAC) (Homo sapiens (Human), UniProt O60502); assay: Cellular OGA-Tau MSD Assay; format: cell-based; settings: HEK-293T cells transfected with OGT and Tau-V5; Tau-S400-GlcNAc MSD readout
Protocol: HEK-293T cells were transfected with OGT and Tau-V5 plasmids using Lipofectamine and grown overnight. Next day, the cells were collected and re-plated at 1×10^5 cells per well in 96 well plates. Cells were incubated for 4 hr at 37° C., before compounds were added at 1 uM, with 3-fold dilutions in a 10-point titration. Cell plates were incubated with compounds overnight at 37° C. The next day media was removed from wells by gentle aspiration and 120 ul of 1× Cell Lysis buffer mixed with protease and phosphatase cocktail added to each well. A freeze thaw was performed at −80° C., then mixed before transferring 50 μl to MSD plates coated with V5-tag antibody to capture Tau. MSD Plates were incubated overnight at 4° C., on a plate shaker. The following day, plates were washed and incubated with Tau-S400-GlcNAc antibody for 2 hr and then developed with rabbit Sulfo-tag antibody. Final read out was carried out on an MSD 600 reader. The data was analyzed using Graph Pad or Genedata, the data was normalized and % activity versus log of compound concentration was plotted. The ICso values were obtained from a 4 parameter fit.

Recombinant full length human OGA enzyme, sequence (O60502 whole entry): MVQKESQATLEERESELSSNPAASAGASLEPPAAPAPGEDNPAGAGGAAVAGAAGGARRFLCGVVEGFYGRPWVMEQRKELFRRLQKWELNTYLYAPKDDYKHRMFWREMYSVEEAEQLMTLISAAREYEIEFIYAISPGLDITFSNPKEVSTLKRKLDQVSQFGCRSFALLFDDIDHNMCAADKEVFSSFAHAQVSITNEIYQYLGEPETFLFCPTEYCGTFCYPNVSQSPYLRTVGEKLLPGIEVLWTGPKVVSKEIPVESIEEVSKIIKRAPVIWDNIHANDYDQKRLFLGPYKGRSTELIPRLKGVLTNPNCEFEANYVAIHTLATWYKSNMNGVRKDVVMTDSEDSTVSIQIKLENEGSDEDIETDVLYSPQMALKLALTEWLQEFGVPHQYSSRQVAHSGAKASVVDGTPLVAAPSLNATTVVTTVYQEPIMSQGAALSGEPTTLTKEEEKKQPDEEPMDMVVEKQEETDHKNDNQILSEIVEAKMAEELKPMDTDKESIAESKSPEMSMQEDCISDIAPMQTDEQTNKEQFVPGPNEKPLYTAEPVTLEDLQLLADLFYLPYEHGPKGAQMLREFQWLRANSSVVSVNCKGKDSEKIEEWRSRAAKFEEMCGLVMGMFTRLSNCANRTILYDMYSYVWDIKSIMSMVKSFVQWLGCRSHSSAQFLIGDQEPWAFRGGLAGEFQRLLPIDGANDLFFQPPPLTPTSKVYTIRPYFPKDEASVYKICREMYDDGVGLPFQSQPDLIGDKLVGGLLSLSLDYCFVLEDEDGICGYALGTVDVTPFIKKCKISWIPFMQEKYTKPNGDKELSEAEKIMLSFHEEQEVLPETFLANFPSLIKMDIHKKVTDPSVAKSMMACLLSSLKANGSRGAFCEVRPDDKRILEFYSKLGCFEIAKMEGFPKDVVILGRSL
OGA (S400 O-GLCNAC), sequence (O60502 whole entry): as above

Row | IC50 [1] | IC50 [2] | Compound
1 | 20.8 nM | 90.3 nM | CC(=O)Nc1nc(F)c(CN2CCCC3(C2)OCc2cncnc23)s1 (stereo not drawn) [Example 88, N-(5-((5H-Spiro[furo[3,4-d]pyrimidine-7,3′-piperidin]-1′-yl)methyl)-4-fluorothiazol-2-yl)acetamide]
2 | < 1 nM | 9 nM | CC(=O)Nc1ncc(CN2C[C@@]3(Cc4cc(N5CCOCC5)ncc4O3)C[C@@H]2C)s1 [Example 37, N-(5-(((2R,5′S)-5′-Methyl-5-morpholino-3H-spiro[furo[2,3-c]pyridine-2,3′-pyrrolidin]-1′-yl)methyl)thiazol-2-yl)acetamide]
3 | 73 nM | 532 nM | CC(=O)Nc1ncc(CN2CCCC3(CCc4ccccc43)C2)s1 (stereo not drawn) [Example 53, N-(5-((2,3-Dihydrospiro[indene-1,3′-piperidin]-1′-yl)methyl)thiazol-2-yl)acetamide]
4 | 10 nM | 118 nM | CC(=O)Nc1nc(F)c(CN2C[C@@]3(C[C@@H]2C)OCc2cnccc23)s1 (single isomer, unassigned) [Example 64-a]
5 | < 1 nM | 8 nM | COc1cc2c(cn1)O[C@]1(C2)C[C@H](C)N(Cc2cnc(NC(C)=O)s2)C1 [Example 17, N-(5-(((2R,5′S)-5-Methoxy-5′-methyl-3H-spiro[furo[2,3-c]pyridine-2,3′-pyrrolidin]-1′-yl)methyl)thiazol-2-yl)acetamide]
6 | 35 nM | 54.3 nM | CC(=O)Nc1ncc(CN2CCCC3(C2)OCc2c3cc[nH]c2=O)s1 (stereo not drawn) [Example 87, N-(5-((4-Oxo-4,5-dihydro-3H-spiro[furo[3,4-c]pyridine-1,3′-piperidin]-1′-yl)methyl)thiazol-2-yl)acetamide]
7 | < 1 nM | 15 nM | CC(=O)Nc1nc(F)c(CN2C[C@@]3(Cc4cc(NC5CC5)ncc4O3)C[C@@H]2C)s1 [Example 31, N-(5-(((2R,5′S)-5-(Cyclopropylamino)-5′-methyl-3H-spiro[furo[2,3-c]pyridine-2,3′-pyrrolidin]-1′-yl)methyl)-4-fluorothiazol-2-yl)acetamide]
8 | 5.9 nM | 18.3 nM | CC(=O)Nc1nc(F)c(CN2CCCC3(C2)OCc2c3ccnc2Cl)s1 (racemic) [Example 83, N-(5-((4-Chloro-3H-spiro[furo[3,4-c]pyridine-1,3′-piperidin]-1′-yl)methyl)-4-fluorothiazol-2-yl)acetamide]
9 | 2 nM | 4 nM | COc1nccc2c1C[C@]1(C[C@H](C)N(Cc3sc(NC(C)=O)nc3F)C1)O2 [Example 18, N-(4-Fluoro-5-(((2R,5′S)-4-methoxy-5′-methyl-3H-spiro[furo[3,2-c]pyridine-2,3′-pyrrolidin]-1′-yl)methyl)thiazol-2-yl)acetamide]
10 | 2.6 nM | 8.5 nM | CC(=O)Nc1nc(F)c(CN2CCC[C@@]3(C2)OCc2c3ccnc2Cl)s1 [Example 84-a, (R)—N-(5-((4-chloro-3H-spiro[furo[3,4-c]pyridine-1,3′-piperidin]-1′-yl)methyl)-4-fluorothiazol-2-yl)acetamide]
11 | 2.3 nM | 9 nM | COc1cnc2c(n1)CC1(C[C@H](C)N(Cc3sc(NC(C)=O)nc3F)C1)O2 (stereo partly drawn) [Example 50, N-(4-Fluoro-5-(((5′S)-2-methoxy-5′-methyl-7H-spiro[furo[2,3-b]pyrazine-6,3′-pyrrolidin]-1′-yl)methyl)thiazol-2-yl)acetamide]
12 | 4.5 nM | 17 nM | CC(=O)Nc1ncc(CN2CCCC3(C2)OCc2c3ccnc2Cl)s1 (stereo not drawn) [Example 85, N-(5-((4-Chloro-3H-spiro[furo[3,4-c]pyridine-1,3′-piperidin]-1′-yl)methyl)thiazol-2-yl)acetamide]
13 | 3.2 nM | 13.8 nM | CC(=O)Nc1nc(F)c(CN2CCCC3(C2)OCc2cnccc23)s1 (racemic) [Example 69, N-(5-((3H-Spiro[furo[3,4-c]pyridine-1,3′-piperidin]-1′-yl)methyl)-4-fluorothiazol-2-yl)acetamide]
14 | 24.5 nM | 250 nM | CC(=O)Nc1ncc(CN2CCCC3(C2)OCc2ccccc23)s1 (stereo not drawn) [Example 55, N-(5-((3H-Spiro[isobenzofuran-1,3′-piperidin]-1′-yl)methyl)thiazol-2-yl)acetamide]
15 | 6 nM | 23 nM | CC(=O)Nc1ncc(CN2C[C@@]3(Cc4cc(C5CC5)ncc4O3)C[C@@H]2C)s1 [Example 25, N-(5-(((2R,5′S)-5-Cyclopropyl-5′-methyl-3H-spiro[furo[2,3-c]pyridine-2,3′-pyrrolidin]-1′-yl)methyl)thiazol-2-yl)acetamide]
16 | 7 nM | 6 nM | CC(=O)Nc1nc(F)c(CN2C[C@@]3(Cc4cc(C(F)(F)F)ncc4O3)C[C@@H]2C)s1 [Example 21, N-(4-Fluoro-5-(((2R,5′S)-5′-methyl-5-(trifluoromethyl)-3H-spiro[furo[2,3-c]pyridine-2,3′-pyrrolidin]-1′-yl)methyl)thiazol-2-yl)acetamide]
17 | < 1 nM | 7 nM | COCCN(C)c1cc2c(cn1)O[C@]1(C2)C[C@H](C)N(Cc2cnc(NC(C)=O)s2)C1 [Example 32, N-(5-(((2R,5′S)-5-((2-Methoxyethyl)(methyl)amino)-5′-methyl-3H-spiro[furo[2,3-c]pyridine-2,3′-pyrrolidin]-1′-yl)methyl)thiazol-2-yl)acetamide]
18 | < 1 nM | 13 nM | CC(=O)Nc1ncc(CN2C[C@@]3(Cc4cc(N5CCN(C)CC5)ncc4O3)C[C@@H]2C)s1 [Example 44, N-(5-(((2R,5′S)-5′-Methyl-5-(4-methylpiperazin-1-yl)-3H-spiro[furo[2,3-c]pyridine-2,3′-pyrrolidin]-1′-yl)methyl)thiazol-2-yl)acetamide]
19 | 1700 nM | > 1000 nM | CC(=O)Nc1ncc(CN2CC3(CCC2C)OCc2ccccc23)s1 (stereo not drawn) [Example 60, N-(5-((6′-Methyl-3H-spiro[isobenzofuran-1,3′-piperidin]-1′-yl)methyl)thiazol-2-yl)acetamide]
20 | < 1 nM | 1 nM | CC(=O)Nc1nc(F)c(CN2C[C@@]3(Cc4cc(N5CCC5)ncc4O3)C[C@@H]2C)s1 [Example 34, N-(5-(((2R,5′S)-5-(Azetidin-1-yl)-5′-methyl-3H-spiro[furo[2,3-c]pyridine-2,3′-pyrrolidin]-1′-yl)methyl)-4-fluorothiazol-2-yl)acetamide]

Row | Compound | IC50 [1] | IC50 [2]
21 | CC(=O)Nc1ncc(CN2CCCC3(C2)OCc2cncnc23)s1 (stereo not drawn) [Example 89, N-(5-((5H-Spiro[furo[3,4-d]pyrimidine-7,3′-piperidin]-1′-yl)methyl)thiazol-2-yl)acetamide] | 67.9 nM | 84.6 nM
22 | CC(=O)Nc1nc(F)c(CN2CCC3(Cc4cnccc4O3)C2)s1 (stereo not drawn) [Example 12, N-(5-((3H-Spiro[furo[3,2-c]pyridine-2,3′-pyrrolidin]-1′-yl)methyl)-4-fluorothiazol-2-yl)acetamide] | 35 nM | 93 nM
23 | CC(=O)Nc1nc(F)c(CN2CCC3(C2)OCc2cnccc23)s1 (stereo not drawn) [Example 67, N-(5-((3H-Spiro[furo[3,4-c]pyridine-1,3′-pyrrolidin]-1′-yl)methyl)-4-fluorothiazol-2-yl)acetamide] | 120 nM | 1000 nM
24 | CC(=O)Nc1ncc(CN2CC3(C[C@@H]2C)OCc2ncccc23)s1 (stereo partly drawn) [Example 80, N-(5-(((5′S)-5′-Methyl-7H-spiro[furo[3,4-b]pyridine-5,3′-pyrrolidin]-1′-yl)methyl)thiazol-2-yl)acetamide] | 49 nM | 15 nM
